Experimental data as given in ChEMBL document CHEMBL1201862, “PubChem BioAssay data set” (2004).
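Results reflect a 48-hour exposure of cells in 96-well plates to compound at five concentrations. GI50 marks 50% less growth.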 Activity calls are given as the source filed them. Cut-off read from the data, not from the text of the source: active = GI50 up to about 1.1 µM and inactive = higher.

Legend:
Test in all cases: NCI-60 cell line screen, 48 h
ACHN = system: ACHN
M14 = system: M14
SF-295 = system: SF-295
MDA-N = system: MDA-N
SK-OV-3 = system: SK-OV-3
IGROV-1 = system: IGROV-1
DU-145 = system: DU-145
Hs-578T = system: Hs-578T
MDA-MB-231 = system: MDA-MB-231
MDA-MB-435 = system: MDA-MB-435
A498 = system: A498
HCT-15 = system: HCT-15
OVCAR-5 = system: OVCAR-5
UACC-62 = system: UACC-62
HCT-116 = system: HCT-116
RPMI-8226 = system: RPMI-8226
UO-31 = system: UO-31
OVCAR-8 = system: OVCAR-8
OVCAR-3 = system: OVCAR-3
MCF7 = system: MCF7
NCI-H522 = system: NCI-H522
U-251 = system: U-251
Malme-3M = system: Malme-3M
SR = system: SR
SK-MEL-2 = system: SK-MEL-2
EKVX = system: EKVX
786-0 = system: 786-0
CAKI-1 = system: CAKI-1
CCRF-CEM = system: CCRF-CEM
T47D = system: T47D
HT-29 = system: HT-29
SK-MEL-28 = system: SK-MEL-28
NCI-H23 = system: NCI-H23
SF-539 = system: SF-539
SNB-75 = system: SNB-75
NCI-H460 = system: NCI-H460
HL-60 = system: HL-60
OVCAR-4 = system: OVCAR-4
UACC-257 = system: UACC-257
COLO 205 = system: COLO 205
PC-3 = system: PC-3
SNB-19 = system: SNB-19
HCC 2998 = system: HCC 2998
NCI/ADR-RES = system: NCI/ADR-RES
NCI-H226 = system: NCI-H226
KM12 = system: KM12
TK-10 = system: TK-10
SW-620 = system: SW-620
LOX IMVI = system: LOX IMVI
SN12C = system: SN12C
MOLT-4 = system: MOLT-4
SF-268 = system: SF-268
HOP-62 = system: HOP-62
K562 = system: K562
BT-549 = system: BT-549
A549 = system: A549
SK-MEL-5 = system: SK-MEL-5
RXF 393 = system: RXF 393

For `CC(=O)c1c2c(cc3c1CC1(Cc4cc5c(cc4C1=O)CCC5)C3)CCC2` (stereo unspecified), the GI50 (ACHN) was > 68.7 µM (inactive), the GI50 (M14) was > 68.1 µM (inactive) and the GI50 (SF-295) was 42.5 µM (inactive). For the same compound, the GI50 (MDA-N) was > 87.1 µM (inactive), the GI50 (SK-OV-3) was > 87.7 µM (inactive) and the GI50 (IGROV-1) was > 100 µM (inactive). For the same compound, the GI50 (DU-145) was > 72.3 µM (inactive), the GI50 (Hs-578T) was > 100 µM (inactive) and the GI50 (MDA-MB-231) was 40.2 µM (inactive). For the same compound, the GI50 (MDA-MB-435) was 48.9 µM (inactive), the GI50 (A498) was > 100 µM (inactive) and the GI50 (HCT-15) was 63 µM. The GI50 (OVCAR-5) was > 100 µM (inactive), the GI50 (UACC-62) was > 100 µM (inactive) and the GI50 (HCT-116) was 9.12 µM (inactive). For the same compound, the GI50 (RPMI-8226) was 10.5 µM (inactive), the GI50 (UO-31) was 36.9 µM (inactive) and the GI50 (OVCAR-8) was 71.9 µM (inactive). For the same compound, the GI50 (OVCAR-3) was > 62.4 µM (inactive), the GI50 (MCF7) was 35.7 µM (inactive) and the GI50 (NCI-H522) was 22.2 µM (inactive). For the same compound, the GI50 (U-251) was > 77.1 µM (inactive), the GI50 (Malme-3M) was 39.1 µM (inactive) and the GI50 (SR) was 6.64 µM (inactive). For the same compound, the GI50 (SK-MEL-2) was 79.8 µM (inactive), the GI50 (EKVX) was 36.1 µM (inactive) and the GI50 (786-0) was > 54.5 µM (inactive). For the same compound, the GI50 (CAKI-1) was 17.3 µM (inactive), the GI50 (CCRF-CEM) was 14.6 µM (inactive) and the GI50 (T47D) was 8.91 µM (inactive). The GI50 (HT-29) was 54.2 µM (inactive), the GI50 (SK-MEL-28) was > 100 µM (inactive) and the GI50 (NCI-H23) was 30.9 µM (inactive). For the same compound, the GI50 (SF-539) was > 100 µM (inactive), the GI50 (SNB-75) was > 78 µM (inactive) and the GI50 (NCI-H460) was 42.6 µM (inactive). For the same compound, the GI50 (HL-60) was 7.21 µM (inactive), the GI50 (OVCAR-4) was 38.5 µM (inactive) and the GI50 (UACC-257) was 13.2 µM (inactive). The GI50 (COLO 205) was 64.6 µM (inactive), the GI50 (PC-3) was 13.1 µM (inactive) and the GI50 (SNB-19) was > 100 µM (inactive). For the same compound, the GI50 (HCC 2998) was 72.9 µM (inactive), the GI50 (NCI/ADR-RES) was 22.5 µM (inactive) and the GI50 (NCI-H226) was 34.3 µM (inactive). For the same compound, the GI50 (KM12) was 53.5 µM (inactive), the GI50 (TK-10) was > 66.1 µM (inactive) and the GI50 (SW-620) was 85.5 µM (inactive). The GI50 (LOX IMVI) was 38.3 µM (inactive), the GI50 (SN12C) was > 61.4 µM (inactive) and the GI50 (MOLT-4) was 4.95 µM (inactive). The GI50 (SF-268) was > 81.5 µM (inactive), the GI50 (HOP-62) was > 100 µM (inactive) and the GI50 (K562) was 14 µM (inactive). The GI50 (BT-549) was 27 µM (inactive), the GI50 (A549) was 42.2 µM (inactive) and the GI50 (SK-MEL-5) was 12.1 µM (inactive).

`CO[C@H]1c2cccc3cccc(c23)[C@@H]1n1[nH]c(=O)n(C(C)(C)C)c1=O` was tested, and the GI50 (M14) was > 100 µM (inactive), the GI50 (MDA-N) was > 100 µM (inactive) and the GI50 (SK-OV-3) was > 100 µM (inactive). The GI50 (IGROV-1) was > 100 µM (inactive), the GI50 (DU-145) was > 100 µM (inactive) and the GI50 (Hs-578T) was > 100 µM (inactive). For the same compound, the GI50 (RXF 393) was > 100 µM (inactive), the GI50 (MDA-MB-231) was > 100 µM (inactive) and the GI50 (MDA-MB-435) was > 100 µM (inactive). For the same compound, the GI50 (A498) was > 100 µM (inactive), the GI50 (HCT-15) was > 100 µM and the GI50 (OVCAR-5) was > 100 µM (inactive). For the same compound, the GI50 (UACC-62) was > 100 µM (inactive), the GI50 (HCT-116) was > 100 µM (inactive) and the GI50 (RPMI-8226) was > 100 µM (inactive). The GI50 (UO-31) was 69.8 µM (inactive), the GI50 (OVCAR-8) was > 100 µM (inactive) and the GI50 (OVCAR-3) was > 100 µM (inactive). The GI50 (MCF7) was > 100 µM (inactive), the GI50 (NCI-H522) was > 100 µM (inactive) and the GI50 (U-251) was > 100 µM (inactive). For the same compound, the GI50 (Malme-3M) was > 100 µM (inactive), the GI50 (SR) was > 100 µM (inactive) and the GI50 (SK-MEL-2) was > 100 µM (inactive). The GI50 (EKVX) was > 100 µM (inactive), the GI50 (786-0) was > 100 µM (inactive) and the GI50 (CAKI-1) was > 100 µM (inactive). For the same compound, the GI50 (CCRF-CEM) was > 100 µM (inactive), the GI50 (T47D) was > 100 µM (inactive) and the GI50 (HT-29) was > 100 µM (inactive). The GI50 (SK-MEL-28) was > 100 µM (inactive), the GI50 (NCI-H23) was > 100 µM (inactive) and the GI50 (SF-539) was > 100 µM (inactive). For the same compound, the GI50 (SNB-75) was > 100 µM (inactive), the GI50 (NCI-H460) was > 100 µM (inactive) and the GI50 (HL-60) was > 100 µM (inactive). The GI50 (OVCAR-4) was > 100 µM (inactive), the GI50 (UACC-257) was > 100 µM (inactive) and the GI50 (COLO 205) was > 100 µM (inactive). For the same compound, the GI50 (PC-3) was > 100 µM (inactive), the GI50 (SNB-19) was > 100 µM (inactive) and the GI50 (HCC 2998) was > 100 µM (inactive). For the same compound, the GI50 (NCI/ADR-RES) was > 100 µM (inactive), the GI50 (NCI-H226) was > 100 µM (inactive) and the GI50 (KM12) was > 100 µM (inactive). For the same compound, the GI50 (TK-10) was > 100 µM (inactive), the GI50 (SW-620) was > 100 µM (inactive) and the GI50 (LOX IMVI) was > 100 µM (inactive). The GI50 (SN12C) was > 100 µM (inactive), the GI50 (MOLT-4) was > 100 µM (inactive) and the GI50 (SF-268) was > 100 µM (inactive). The GI50 (K562) was > 100 µM (inactive), the GI50 (BT-549) was > 100 µM (inactive) and the GI50 (A549) was > 100 µM (inactive).
